For orientation: AC50 means the concentration giving half of the maximal activity seen. High values mean weaker potency, low ones greater potency.

Drawing on ChEMBL document CHEMBL5291721, “A preclinical secondary pharmacology resource illuminates target-adverse drug reaction associations of marketed drugs” (Nat Commun, 2023), this text covers AC50 for 9 compounds.

The structures appear in SMILES notation. Where only a bound is given, the exact number is not on record here.

Experiment [1] concerns the target T1, Prostaglandin G/H synthase 1 (Homo sapiens, UniProt P23219). The format is functional.
The target in experiment [2] is D(1A) dopamine receptor (Homo sapiens, UniProt P21728).
Experiment [3] has as its target T2, Adenosine receptor A3 (Homo sapiens, UniProt P0DMS8).
T2 sequence (P0DMS8 whole entry): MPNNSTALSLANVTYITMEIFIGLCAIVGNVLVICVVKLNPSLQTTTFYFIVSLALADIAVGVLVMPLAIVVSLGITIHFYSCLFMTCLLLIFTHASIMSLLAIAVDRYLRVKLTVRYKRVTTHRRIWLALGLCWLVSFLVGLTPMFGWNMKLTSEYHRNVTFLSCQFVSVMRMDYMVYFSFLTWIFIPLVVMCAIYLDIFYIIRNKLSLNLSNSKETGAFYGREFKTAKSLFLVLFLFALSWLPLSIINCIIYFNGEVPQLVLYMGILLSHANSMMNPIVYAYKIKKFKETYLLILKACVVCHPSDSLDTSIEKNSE

In experiment [4] the target is cGMP-inhibited 3',5'-cyclic phosphodiesterase 3A (Homo sapiens, UniProt Q14432). In kind it is functional.
The target in experiment [5] is T3, Progesterone receptor (Homo sapiens, UniProt P06401).
T3 sequence (P06401 whole entry): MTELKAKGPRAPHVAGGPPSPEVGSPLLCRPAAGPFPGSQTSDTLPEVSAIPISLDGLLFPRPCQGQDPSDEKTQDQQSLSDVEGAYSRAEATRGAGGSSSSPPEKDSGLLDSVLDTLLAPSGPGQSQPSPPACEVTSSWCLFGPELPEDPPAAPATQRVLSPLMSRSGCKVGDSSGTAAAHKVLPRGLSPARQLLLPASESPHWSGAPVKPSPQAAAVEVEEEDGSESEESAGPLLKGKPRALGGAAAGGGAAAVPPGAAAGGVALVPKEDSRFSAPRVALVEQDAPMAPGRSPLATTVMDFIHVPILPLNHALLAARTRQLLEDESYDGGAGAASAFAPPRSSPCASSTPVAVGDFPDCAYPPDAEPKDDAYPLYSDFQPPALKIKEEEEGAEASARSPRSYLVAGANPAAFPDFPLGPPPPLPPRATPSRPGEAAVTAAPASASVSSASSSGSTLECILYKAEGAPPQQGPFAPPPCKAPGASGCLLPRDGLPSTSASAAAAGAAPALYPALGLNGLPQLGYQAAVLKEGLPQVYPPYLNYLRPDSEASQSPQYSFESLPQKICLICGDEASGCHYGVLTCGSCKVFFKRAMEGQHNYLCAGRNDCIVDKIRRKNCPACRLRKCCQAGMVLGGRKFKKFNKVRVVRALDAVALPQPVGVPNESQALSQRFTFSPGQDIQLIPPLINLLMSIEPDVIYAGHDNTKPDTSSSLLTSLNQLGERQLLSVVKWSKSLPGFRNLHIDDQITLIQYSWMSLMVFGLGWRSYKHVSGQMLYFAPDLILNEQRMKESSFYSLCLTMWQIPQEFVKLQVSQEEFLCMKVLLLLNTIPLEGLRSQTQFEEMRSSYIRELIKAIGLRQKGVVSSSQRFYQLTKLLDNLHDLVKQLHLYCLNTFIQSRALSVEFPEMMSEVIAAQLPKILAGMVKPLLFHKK

The target in experiment [6] is Sodium-dependent noradrenaline transporter (Homo sapiens, UniProt P23975).
The target in experiment [7] is Sodium-dependent serotonin transporter (Homo sapiens, UniProt P31645).
The target in experiment [8] is T1, Prostaglandin G/H synthase 1. The format is functional. This is another data set of the same source.
In experiment [9] the target is Histamine H3 receptor (Homo sapiens, UniProt Q9Y5N1).
Experiment [10] has as its target T4, Alpha-1A adrenergic receptor (Homo sapiens, UniProt P35348).
T4 sequence (P35348 whole entry): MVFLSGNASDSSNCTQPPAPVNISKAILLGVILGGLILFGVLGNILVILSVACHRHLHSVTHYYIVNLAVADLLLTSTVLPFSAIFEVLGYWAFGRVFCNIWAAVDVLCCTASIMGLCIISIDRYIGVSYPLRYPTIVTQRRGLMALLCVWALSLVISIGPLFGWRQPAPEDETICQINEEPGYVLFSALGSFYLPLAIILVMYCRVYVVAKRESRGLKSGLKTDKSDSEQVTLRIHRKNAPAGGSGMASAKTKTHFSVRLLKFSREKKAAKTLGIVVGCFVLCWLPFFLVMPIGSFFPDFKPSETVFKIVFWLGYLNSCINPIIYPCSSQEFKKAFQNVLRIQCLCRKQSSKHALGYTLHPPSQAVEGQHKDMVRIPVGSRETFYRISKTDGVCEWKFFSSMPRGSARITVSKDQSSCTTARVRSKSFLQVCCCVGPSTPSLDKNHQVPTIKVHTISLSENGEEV
In kind it is functional, cell-based.

Experiment [11] addresses 5-hydroxytryptamine receptor 2B (Homo sapiens, UniProt P41595). The format is functional, cell-based.
The target of experiment [12] is Acetylcholinesterase (Homo sapiens, UniProt P22303). The format is functional.
Experiment [13] concerns the target Mu-type opioid receptor (Homo sapiens, UniProt P35372).
For experiment [14], the target named is T5, Amine oxidase [flavin-containing] A (Homo sapiens, UniProt P21397).
T5 sequence (P21397 whole entry): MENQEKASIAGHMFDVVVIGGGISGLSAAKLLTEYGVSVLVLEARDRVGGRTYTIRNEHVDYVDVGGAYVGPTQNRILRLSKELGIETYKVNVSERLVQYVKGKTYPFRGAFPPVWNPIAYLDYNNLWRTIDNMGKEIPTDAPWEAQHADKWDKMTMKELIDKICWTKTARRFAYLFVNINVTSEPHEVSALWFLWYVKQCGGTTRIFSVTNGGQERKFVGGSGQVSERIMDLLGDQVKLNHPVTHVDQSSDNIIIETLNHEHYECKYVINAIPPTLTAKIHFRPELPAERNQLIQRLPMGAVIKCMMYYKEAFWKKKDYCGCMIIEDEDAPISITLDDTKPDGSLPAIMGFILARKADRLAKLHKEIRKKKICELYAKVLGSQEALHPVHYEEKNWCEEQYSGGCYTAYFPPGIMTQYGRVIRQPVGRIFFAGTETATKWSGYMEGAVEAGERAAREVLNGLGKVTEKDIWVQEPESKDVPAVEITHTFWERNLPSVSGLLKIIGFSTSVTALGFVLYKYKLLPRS
The format is functional.

Experiment [15] addresses Vascular endothelial growth factor receptor 2 (Homo sapiens, UniProt P35968). The format is functional.
Further: assay procedure not described here.

Sequence of Sodium-dependent noradrenaline transporter (P23975 whole entry): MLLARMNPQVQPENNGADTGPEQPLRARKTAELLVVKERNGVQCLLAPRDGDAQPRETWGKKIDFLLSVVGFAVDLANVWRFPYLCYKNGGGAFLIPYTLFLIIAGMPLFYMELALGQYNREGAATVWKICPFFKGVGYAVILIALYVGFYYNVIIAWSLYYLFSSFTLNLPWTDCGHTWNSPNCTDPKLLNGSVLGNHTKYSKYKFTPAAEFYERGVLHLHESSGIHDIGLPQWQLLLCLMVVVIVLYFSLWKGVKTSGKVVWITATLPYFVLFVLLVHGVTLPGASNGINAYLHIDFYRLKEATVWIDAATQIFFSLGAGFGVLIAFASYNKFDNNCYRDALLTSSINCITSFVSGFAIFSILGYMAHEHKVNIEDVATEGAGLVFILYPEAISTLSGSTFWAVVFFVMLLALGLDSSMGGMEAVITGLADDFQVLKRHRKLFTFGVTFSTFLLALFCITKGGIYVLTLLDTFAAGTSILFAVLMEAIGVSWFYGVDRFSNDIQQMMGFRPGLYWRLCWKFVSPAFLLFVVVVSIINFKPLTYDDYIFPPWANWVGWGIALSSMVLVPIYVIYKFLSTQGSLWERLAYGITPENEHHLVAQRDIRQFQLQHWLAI
Sequence of Acetylcholinesterase (P22303 whole entry): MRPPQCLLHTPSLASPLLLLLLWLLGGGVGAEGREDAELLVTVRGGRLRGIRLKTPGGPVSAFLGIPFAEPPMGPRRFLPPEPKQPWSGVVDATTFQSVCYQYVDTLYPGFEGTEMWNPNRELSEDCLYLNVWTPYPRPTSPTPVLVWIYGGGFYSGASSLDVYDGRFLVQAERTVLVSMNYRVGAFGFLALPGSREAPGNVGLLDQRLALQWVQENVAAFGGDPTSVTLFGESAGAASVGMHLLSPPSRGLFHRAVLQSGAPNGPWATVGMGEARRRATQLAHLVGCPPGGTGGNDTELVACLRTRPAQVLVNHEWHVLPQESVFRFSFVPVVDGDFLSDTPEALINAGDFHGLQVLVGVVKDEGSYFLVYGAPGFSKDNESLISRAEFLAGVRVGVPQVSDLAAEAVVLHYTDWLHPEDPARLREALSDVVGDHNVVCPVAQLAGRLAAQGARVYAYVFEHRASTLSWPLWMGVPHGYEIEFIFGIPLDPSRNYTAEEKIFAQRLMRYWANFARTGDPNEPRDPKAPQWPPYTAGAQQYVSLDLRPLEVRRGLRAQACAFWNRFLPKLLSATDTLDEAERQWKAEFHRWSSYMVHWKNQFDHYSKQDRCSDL
Sequence of cGMP-inhibited 3',5'-cyclic phosphodiesterase 3A (Q14432 whole entry): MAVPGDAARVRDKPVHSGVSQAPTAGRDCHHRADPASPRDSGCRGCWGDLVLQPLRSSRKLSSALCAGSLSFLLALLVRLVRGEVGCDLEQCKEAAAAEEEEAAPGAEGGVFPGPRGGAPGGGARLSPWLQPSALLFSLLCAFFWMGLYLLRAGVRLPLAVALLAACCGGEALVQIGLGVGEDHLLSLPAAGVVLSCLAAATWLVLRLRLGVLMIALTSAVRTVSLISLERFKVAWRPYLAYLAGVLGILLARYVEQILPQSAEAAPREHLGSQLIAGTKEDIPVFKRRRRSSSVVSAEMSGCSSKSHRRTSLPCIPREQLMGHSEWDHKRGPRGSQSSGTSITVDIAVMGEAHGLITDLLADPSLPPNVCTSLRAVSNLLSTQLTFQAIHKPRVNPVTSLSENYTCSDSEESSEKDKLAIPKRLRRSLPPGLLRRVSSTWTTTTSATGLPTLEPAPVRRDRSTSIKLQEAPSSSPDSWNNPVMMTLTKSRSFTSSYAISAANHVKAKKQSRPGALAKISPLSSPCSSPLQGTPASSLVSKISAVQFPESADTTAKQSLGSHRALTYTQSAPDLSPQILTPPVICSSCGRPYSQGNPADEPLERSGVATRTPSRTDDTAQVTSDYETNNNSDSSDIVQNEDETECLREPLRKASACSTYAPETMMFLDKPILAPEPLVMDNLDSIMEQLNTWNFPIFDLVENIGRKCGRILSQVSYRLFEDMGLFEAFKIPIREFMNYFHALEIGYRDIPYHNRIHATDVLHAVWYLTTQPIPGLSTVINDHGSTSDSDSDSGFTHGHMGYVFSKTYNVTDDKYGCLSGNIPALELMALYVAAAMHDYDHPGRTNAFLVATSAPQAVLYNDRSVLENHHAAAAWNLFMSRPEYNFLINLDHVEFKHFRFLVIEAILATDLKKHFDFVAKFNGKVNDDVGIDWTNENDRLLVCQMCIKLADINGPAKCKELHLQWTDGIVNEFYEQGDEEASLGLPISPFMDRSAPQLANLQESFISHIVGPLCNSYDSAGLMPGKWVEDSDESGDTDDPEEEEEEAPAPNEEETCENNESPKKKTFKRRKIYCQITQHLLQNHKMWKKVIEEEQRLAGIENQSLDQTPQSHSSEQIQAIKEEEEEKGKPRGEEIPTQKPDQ
Sequence of Histamine H3 receptor (Q9Y5N1 whole entry): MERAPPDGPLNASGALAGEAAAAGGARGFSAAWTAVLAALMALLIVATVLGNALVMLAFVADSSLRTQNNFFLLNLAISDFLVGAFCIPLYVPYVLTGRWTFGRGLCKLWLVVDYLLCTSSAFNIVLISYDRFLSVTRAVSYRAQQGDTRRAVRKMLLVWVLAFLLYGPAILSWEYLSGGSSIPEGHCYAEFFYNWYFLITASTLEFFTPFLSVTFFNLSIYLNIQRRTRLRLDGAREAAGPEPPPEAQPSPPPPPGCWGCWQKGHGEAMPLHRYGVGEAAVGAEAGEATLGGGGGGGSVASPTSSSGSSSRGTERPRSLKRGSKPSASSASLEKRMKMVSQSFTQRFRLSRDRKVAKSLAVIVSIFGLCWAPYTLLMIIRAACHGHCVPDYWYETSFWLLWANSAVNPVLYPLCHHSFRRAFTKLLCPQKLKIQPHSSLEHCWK
Sequence of 5-hydroxytryptamine receptor 2B (P41595 whole entry): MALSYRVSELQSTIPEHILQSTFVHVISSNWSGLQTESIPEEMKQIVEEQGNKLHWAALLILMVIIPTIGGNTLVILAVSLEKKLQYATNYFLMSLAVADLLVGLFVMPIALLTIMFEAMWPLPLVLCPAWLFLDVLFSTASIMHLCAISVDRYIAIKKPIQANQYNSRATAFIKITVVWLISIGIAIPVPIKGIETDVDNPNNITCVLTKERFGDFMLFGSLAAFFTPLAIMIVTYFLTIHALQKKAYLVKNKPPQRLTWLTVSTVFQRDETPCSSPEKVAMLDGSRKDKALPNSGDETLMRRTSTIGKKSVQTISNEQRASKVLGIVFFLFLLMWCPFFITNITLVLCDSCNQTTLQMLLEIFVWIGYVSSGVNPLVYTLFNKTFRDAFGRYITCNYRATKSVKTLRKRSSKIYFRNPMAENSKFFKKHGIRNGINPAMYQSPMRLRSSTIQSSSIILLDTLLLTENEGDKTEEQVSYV
Sequence of Mu-type opioid receptor (P35372 whole entry): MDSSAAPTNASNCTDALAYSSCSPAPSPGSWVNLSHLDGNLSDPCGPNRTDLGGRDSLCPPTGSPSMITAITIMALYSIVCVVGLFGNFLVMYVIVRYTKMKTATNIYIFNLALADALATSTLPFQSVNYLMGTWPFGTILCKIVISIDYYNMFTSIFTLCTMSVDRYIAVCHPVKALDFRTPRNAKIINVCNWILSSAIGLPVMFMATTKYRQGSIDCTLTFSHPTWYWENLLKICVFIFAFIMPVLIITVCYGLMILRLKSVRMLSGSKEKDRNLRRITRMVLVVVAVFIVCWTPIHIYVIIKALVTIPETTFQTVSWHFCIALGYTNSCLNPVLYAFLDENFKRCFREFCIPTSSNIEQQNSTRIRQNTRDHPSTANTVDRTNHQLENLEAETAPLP
T1 sequence (P23219 whole entry): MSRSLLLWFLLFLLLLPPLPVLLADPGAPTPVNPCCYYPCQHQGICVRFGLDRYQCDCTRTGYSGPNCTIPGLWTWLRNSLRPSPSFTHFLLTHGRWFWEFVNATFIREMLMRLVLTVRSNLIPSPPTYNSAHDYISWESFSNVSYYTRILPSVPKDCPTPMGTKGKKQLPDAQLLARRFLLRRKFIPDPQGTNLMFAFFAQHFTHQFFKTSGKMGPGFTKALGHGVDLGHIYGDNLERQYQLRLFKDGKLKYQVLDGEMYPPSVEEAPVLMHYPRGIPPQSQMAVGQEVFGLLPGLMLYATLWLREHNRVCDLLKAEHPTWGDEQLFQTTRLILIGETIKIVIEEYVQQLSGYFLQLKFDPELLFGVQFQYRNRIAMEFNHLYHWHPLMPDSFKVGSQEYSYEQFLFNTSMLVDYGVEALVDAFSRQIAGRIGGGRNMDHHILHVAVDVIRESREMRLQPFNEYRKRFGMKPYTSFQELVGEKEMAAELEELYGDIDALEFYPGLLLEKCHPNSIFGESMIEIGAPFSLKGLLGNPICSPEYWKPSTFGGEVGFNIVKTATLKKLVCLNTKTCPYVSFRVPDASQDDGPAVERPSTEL
Sequence of Sodium-dependent serotonin transporter (P31645 whole entry): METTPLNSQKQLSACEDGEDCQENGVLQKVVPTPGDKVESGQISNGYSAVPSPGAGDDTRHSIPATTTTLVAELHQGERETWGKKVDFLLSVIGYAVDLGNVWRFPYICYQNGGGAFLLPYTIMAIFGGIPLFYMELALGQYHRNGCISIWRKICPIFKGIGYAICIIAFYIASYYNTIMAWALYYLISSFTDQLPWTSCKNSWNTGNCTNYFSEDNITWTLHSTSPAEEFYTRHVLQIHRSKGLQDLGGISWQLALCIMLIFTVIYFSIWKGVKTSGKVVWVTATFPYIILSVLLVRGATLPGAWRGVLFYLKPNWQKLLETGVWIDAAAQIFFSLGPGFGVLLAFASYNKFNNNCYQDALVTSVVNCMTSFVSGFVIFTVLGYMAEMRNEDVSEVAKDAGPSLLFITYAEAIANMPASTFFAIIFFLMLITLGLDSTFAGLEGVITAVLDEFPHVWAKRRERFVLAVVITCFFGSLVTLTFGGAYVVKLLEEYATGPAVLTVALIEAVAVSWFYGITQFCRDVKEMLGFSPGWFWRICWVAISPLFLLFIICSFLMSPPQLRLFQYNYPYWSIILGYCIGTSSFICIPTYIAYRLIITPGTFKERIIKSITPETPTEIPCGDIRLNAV

Consider `OC(c1ccccc1)(c1ccccc1)C12CC[N+](CCOCc3ccccc3)(CC1)CC2`, for which the AC50 in [1] is over 30 µM; in [2], over 30 µM; in experiment [3] it was over 30 µM; in experiment [4], over 30 µM; in experiment [5], over 30 µM; in experiment [6], 2.73 µM. For the same compound, the AC50 in [7] was 0.302 µM; in experiment [8], over 30 µM; in [9] it was over 30 µM; in experiment [10], over 30 µM; in [11], over 30 µM; in experiment [12], over 30 µM. Further, the AC50 in experiment [13] was 1.07 µM; in experiment [14] it was over 30 µM.
Take `CN1CCN(C2=Nc3ccccc3Sc3ccc(Cl)cc32)CC1` [CLOTHIAPINE]: the AC50 in experiment [1] was over 30 µM; in experiment [2], 0.0061 µM; in experiment [4], over 30 µM; in [5], over 30 µM; in experiment [6] it was 0.76 µM; in experiment [7], 4.87 µM. Also, the AC50 was over 30 µM in experiment [8]; over 30 µM in experiment [9]; over 10 µM in [10]; over 30 µM in [11]; over 30 µM in [12]; 1.1 µM in [13]. In experiment [14], this compound gave an AC50 of over 30 µM.
Turning to `O=[N+]([O-])O[C@@H]1CO[C@H]2[C@@H]1OC[C@@H]2O` [ISOSORBIDE MONONITRATE], the AC50 in experiment [1], in [2], in experiment [4], in experiment [5], in [6] and in experiment [7] was over 30 µM throughout. The AC50 in [8], in [9], in experiment [10], in experiment [11], in [12] and in experiment [13] was over 30 µM in each case. Further, in [14], the AC50 is over 30 µM.
`COc1ccc2c(c1)N(C[C@H](C)CN(C)C)c1ccccc1S2` [LEVOMEPROMAZINE]: the AC50 is 11.3 µM in [1]; over 30 µM in [3]; over 30 µM in experiment [4]; over 30 µM in [5]; over 30 µM in experiment [6]; over 30 µM in experiment [7]. For the same compound, the AC50 in experiment [8] is over 30 µM; in experiment [9], over 30 µM; in experiment [11], over 30 µM; in experiment [12], over 30 µM; in [15], over 30 µM; in experiment [13], 13.5 µM. The AC50 in [14] is over 30 µM.
`O=[N+]([O-])c1cn2c(n1)OC[C@@H](OCc1ccc(OC(F)(F)F)cc1)C2` [PRETOMANID]: the AC50 in experiment [1], in experiment [2], in experiment [3], in [4], in experiment [5] and in [6] was over 30 µM each time. Besides, the AC50 was over 30 µM in experiment [7]; over 30 µM in experiment [8]; over 30 µM in experiment [9]; over 10 µM in experiment [10]; over 30 µM in [11]; over 30 µM in [12]. For the same compound, the AC50 in [13] and in experiment [14] was over 30 µM each time.
Consider `O=C(Oc1ccc2c(c1)CCCN2C(=O)C(Cl)Cl)c1ccco1` [QUINFAMIDE], for which the half-maximal activity concentration (AC50) in [1] was over 30 µM; in [2] it was over 30 µM; in [3], 25.6 µM; in [4], over 30 µM; in experiment [5], over 30 µM; in [6] it was over 30 µM. The concentration at half-maximal activity (AC50) in experiment [7], in experiment [8], in experiment [9], in experiment [10], in experiment [11] and in experiment [12] was over 30 µM in each case. Also, the AC50 in experiment [13] and in experiment [14] was over 30 µM in each case.
For `CCCCCNC(=N)N/N=C/c1c[nH]c2ccc(OC)cc12` [TEGASEROD], the concentration at half-maximal activity (AC50) in [1] was 20.4 µM; in experiment [2], 0.73 µM; in [4], over 30 µM; in experiment [5] it was over 30 µM; in [6], 0.26 µM; in [7] it was 2.57 µM. In addition, the AC50 in experiment [8] was 2.65 µM; in experiment [9], over 30 µM; in experiment [10], over 3 µM; in experiment [11], over 30 µM; in experiment [12], over 30 µM; in experiment [13], 2.32 µM. The same compound gave an AC50 in [14] of 23.6 µM.
On to `CCCCS(=O)(=O)N[C@@H](Cc1ccc(OCCCCC2CCNCC2)cc1)C(=O)O` [TIROFIBAN], for which the concentration at half-maximal activity (AC50) in experiment [1] was over 30 µM; in experiment [2] it was over 30 µM; in experiment [4], over 30 µM; in experiment [5], over 30 µM; in experiment [6] it was over 30 µM; in [7] it was 9.96 µM. Moreover, the AC50 in experiment [8], in experiment [9], in experiment [10], in [11], in experiment [12] and in experiment [13] was over 30 µM in each case. This compound yielded an AC50 in experiment [14] of over 30 µM.
As to `COC1=C(OC)C(=O)C(C/C=C(\C)CC/C=C(\C)CC/C=C(\C)CC/C=C(\C)CC/C=C(\C)CC/C=C(\C)CC/C=C(\C)CC/C=C(\C)CC/C=C(\C)CCC=C(C)C)=C(C)C1=O` [UBIDECARENONE], the AC50 in experiment [1], in experiment [2], in [4], in experiment [5], in experiment [6] and in experiment [7] was over 30 µM in each case. Also, the AC50 in [8], in experiment [9], in [10], in experiment [11], in experiment [12] and in experiment [13] was over 30 µM in each case. In addition, the AC50 in experiment [14] was over 30 µM.
